± gives the standard deviation of the averaged measurements.
Assay: TIMS collisional cross section (CCS, N2) of the lipid ion; higher = larger ion cross section
Details: ionization mode: positive, one isomer drawn

## CCCCC/C=C\C/C=C\CCCCCCCC(=O)OC[C@H](COP(=O)(O)OCCN)OC(=O)CCCCCCC/C=C\CCCCCC [PE 18:2@_16:1] (ion (formula + adduct): [C39H72NO8P+H] 1+)
Sample type: HeLa
  TIMS collisional cross section: 270 Å²

## CC/C=C\C/C=C\C/C=C\C/C=C\C/C=C\CCCC(=O)O[C@H](COC(=O)CCCCCCC/C=C\C/C=C\CCCCC)COP(=O)(O)OCCN [PE 18:2@_20:5] (ion (formula + adduct): [C43H72NO8P+H] 1+)
Sample type: Liver
  TIMS collisional cross section: 277.2 Å²

## CCCCC/C=C\C/C=C\CCCCCCCC(=O)OC[C@H](COP(=O)(O)OCCN)OC(=O)CCCCCCC/C=C\CCCCCC [PE 18:2_16:1] (ion (formula + adduct): [C39H72NO8P+H] 1+)
Sample type: Liver
  TIMS collisional cross section: 268.7 Å²

## CCCCC/C=C\C/C=C\CCCCCCCC(=O)OC[C@H](COP(=O)(O)OCCN)OC(=O)CCCCCCC/C=C\C/C=C\CCCCC [PE 18:2_18:2] (ion (formula + adduct): [C41H74NO8P+H] 1+)
Sample type: Liver
  TIMS collisional cross section: 273.1 Å²

## CCCCC/C=C\C/C=C\C/C=C\CCCCC(=O)O[C@H](COC(=O)CCCCCCC/C=C\C/C=C\CCCCC)COP(=O)(O)OCCN [PE 18:2_18:3] (ion (formula + adduct): [C41H72NO8P+H] 1+)
Sample type: Liver
  TIMS collisional cross section: 270.2 Å²

## CCCCC/C=C\C/C=C\CCCCCCCC(=O)OC[C@H](COP(=O)(O)OCCN)OC(=O)CCCCCCCCC/C=C\CCCCCCCC [PE 18:2_20:1] (ion (formula + adduct): [C43H80NO8P+Na] 1+)
Sample type: Liver
  TIMS collisional cross section: 284.2 Å²

## CCCCC/C=C\C/C=C\C/C=C\C/C=C\CCCC(=O)O[C@H](COC(=O)CCCC/C=C\C/C=C\C/C=C\CCCCC)COP(=O)(O)OCCN [PE 18:3_20:4@] (ion (formula + adduct): [C43H72NO8P+H] 1+)
Sample type: HeLa
  TIMS collisional cross section: 273.8 Å²
Sample type: Liver
  TIMS collisional cross section: 273.7 Å²

## CC/C=C\C/C=C\C/C=C\C/C=C\C/C=C\C/C=C\CCC(=O)O[C@H](COC(=O)CCCC/C=C\C/C=C\C/C=C\CCCCC)COP(=O)(O)OCCN [PE 18:3_22:6] (ion (formula + adduct): [C45H72NO8P+H] 1+)
Sample type: Liver
  TIMS collisional cross section: 276.7 Å²

## CCCCC/C=C\C/C=C\C/C=C\C/C=C\CCCC(=O)O[C@H](COC(=O)CCCCCCCCCCCCCCCCCC)COP(=O)(O)OCCN [PE 19:0_20:4@] (ion (formula + adduct): [C44H80NO8P+H] 1+)
Sample type: HeLa
  TIMS collisional cross section: 287.3 Å²

## CCCCC/C=C\C/C=C\CCCCCCCC(=O)O[C@H](COC(=O)CCCCCCCCCCCCCCCCCCC)COP(=O)(O)OCCN [PE 20:0@_18:2] (ion (formula + adduct): [C43H82NO8P+H] 1+)
Sample type: Liver
  TIMS collisional cross section: 286.3 Å²

## CCCCC/C=C\C/C=C\C/C=C\C/C=C\CCCC(=O)O[C@H](COC(=O)CCCCCCCCC/C=C\CCCCCCCC)COP(=O)(O)OCCN [PE 20:1_20:4] (ion (formula + adduct): [C45H80NO8P+H] 1+)
Sample type: Liver
  TIMS collisional cross section: 287.2 Å²

## CCCCC/C=C\C/C=C\C/C=C\CCCCCCC(=O)OC[C@H](COP(=O)(O)OCCN)OC(=O)CCCCCCCCCCCCCCC [PE 20:3@_16:0] (ion (formula + adduct): [C41H76NO8P+H] 1+)
Sample type: HeLa
  TIMS collisional cross section: 279.1 Å²

## CCCCC/C=C\C/C=C\C/C=C\C/C=C\CCCC(=O)O[C@H](COC(=O)CCCCCC/C=C\C/C=C\C/C=C\CCCCC)COP(=O)(O)OCCN [PE 20:3_20:4@] (ion (formula + adduct): [C45H76NO8P+H] 1+)
Sample type: Liver
  TIMS collisional cross section: 280.9 Å²

## CCCCC/C=C\C/C=C\C/C=C\C/C=C\CCCC(=O)OC[C@H](COP(=O)(O)OCCN)OC(=O)CCCCCCCCCCCCC [PE 20:4@_14:0] (ion (formula + adduct): [C39H70NO8P+H] 1+)
Sample type: HeLa
  TIMS collisional cross section: 270.2 Å²

## CC/C=C\C/C=C\C/C=C\C/C=C\C/C=C\C/C=C\CCC(=O)O[C@H](COC(=O)CCC/C=C\C/C=C\C/C=C\C/C=C\CCCCC)COP(=O)(O)OCCN [PE 20:4@_22:6] (ion (formula + adduct): [C47H74NO8P+H] 1+)
Sample type: HeLa
  TIMS collisional cross section: 284.8 Å²
Sample type: Liver
  TIMS collisional cross section: 284.4 Å²

## CCCCC/C=C\C/C=C\C/C=C\C/C=C\CCCC(=O)OC[C@H](COP(=O)(O)OCCN)OC(=O)CCCCCCC/C=C\CCCCCC [PE 20:4_16:1] (ion (formula + adduct): [C41H72NO8P+H] 1+)
Sample type: HeLa
  TIMS collisional cross section: 272.4 Å²
Sample type: Liver
  TIMS collisional cross section: 272.6 Å²

## CCCCC/C=C\C/C=C\C/C=C\C/C=C\CCCC(=O)OC[C@H](COP(=O)(O)OCCN)OC(=O)CCCCCCC/C=C\CCCCCCCC [PE 20:4_18:1] (ion (formula + adduct): [C43H76NO8P+H] 1+)
Sample type: HeLa
  TIMS collisional cross section: 279.1 Å²
Sample type: Liver
  TIMS collisional cross section: 280 ± 0.42 Å²

## CCCCC/C=C\C/C=C\C/C=C\C/C=C\CCCC(=O)OC[C@H](COP(=O)(O)OCCN)OC(=O)CCCCCCCCCCCCCCCCCCC [PE 20:4_20:0] (ion (formula + adduct): [C45H82NO8P+H] 1+)
Sample type: Liver
  TIMS collisional cross section: 290.4 Å²

## CCCCC/C=C\C/C=C\C/C=C\C/C=C\CCCC(=O)OC[C@H](COP(=O)(O)OCCN)OC(=O)CCC/C=C\C/C=C\C/C=C\C/C=C\CCCCC [PE 20:4_20:4] (ion (formula + adduct): [C45H74NO8P+H] 1+)
Sample type: HeLa
  TIMS collisional cross section: 280.6 Å²
Sample type: Liver
  TIMS collisional cross section: 279.6 Å²

## CC/C=C\C/C=C\C/C=C\C/C=C\C/C=C\CCCC(=O)O[C@H](COC(=O)CCC/C=C\C/C=C\C/C=C\C/C=C\CCCCC)COP(=O)(O)OCCN [PE 20:4_20:5] (ion (formula + adduct): [C45H72NO8P+H] 1+)
Sample type: HeLa
  TIMS collisional cross section: 279.1 Å²

## CC/C=C\C/C=C\C/C=C\C/C=C\C/C=C\CCCC(=O)OC[C@H](COP(=O)(O)OCCN)OC(=O)CCCCCCCCCCCCCCCCC [PE 20:5_18:0] (ion (formula + adduct): [C43H76NO8P+H] 1+)
Sample type: Liver
  TIMS collisional cross section: 281.4 Å²

## CCCC/C=C\CCCCCCCCCCCC(=O)O[C@H](COC(=O)CCCCCCCCCCCCCCCCCCCCC)COP(=O)(O)OCCN [PE 22:0_18:1@] (ion (formula + adduct): [C45H88NO8P+H] 1+)
Sample type: HeLa
  TIMS collisional cross section: 294.9 Å²

## CCCCC/C=C\C/C=C\C/C=C\C/C=C\CCCCCC(=O)OC[C@H](COP(=O)(O)OCCN)OC(=O)CCCCCCCCCCCCCCCCC [PE 22:4_18:0] (ion (formula + adduct): [C45H82NO8P+H] 1+)
Sample type: Liver
  TIMS collisional cross section: 289.7 Å²

## CC/C=C\C/C=C\C/C=C\C/C=C\C/C=C\C/C=C\CCC(=O)OC[C@H](COP(=O)(O)OCCN)OC(=O)CCCCCCC/C=C\CCCCCC [PE 22:6@_16:1] (ion (formula + adduct): [C43H72NO8P+H] 1+)
Sample type: HeLa
  TIMS collisional cross section: 275 Å²

## CC/C=C\C/C=C\C/C=C\C/C=C\C/C=C\C/C=C\CCC(=O)OC[C@H](COP(=O)(O)OCCN)OC(=O)CCCCCCC/C=C\CCCCCCCC [PE 22:6_18:1@] (ion (formula + adduct): [C45H76NO8P+H] 1+)
Sample type: HeLa
  TIMS collisional cross section: 281.9 Å²

## CC/C=C\C/C=C\C/C=C\C/C=C\C/C=C\C/C=C\CCC(=O)OC[C@H](COP(=O)(O)OCCN)OC(=O)CCCCCCC/C=C\CCCCCCCC [PE 22:6_18:1] (ion (formula + adduct): [C45H76NO8P+H] 1+)
Sample type: Liver
  TIMS collisional cross section: 281.4 Å²

## CC/C=C\C/C=C\C/C=C\C/C=C\C/C=C\C/C=C\CCC(=O)OC[C@H](COP(=O)(O)OCCN)OC(=O)CCCCCCCCCCCCCCCCCCC [PE 22:6_20:0] (ion (formula + adduct): [C47H82NO8P+H] 1+)
Sample type: Liver
  TIMS collisional cross section: 292.6 Å²

## CC/C=C\C/C=C\C/C=C\C/C=C\C/C=C\C/C=C\CCC(=O)OC[C@H](COP(=O)(O)OCCN)OC(=O)CC/C=C\C/C=C\C/C=C\C/C=C\C/C=C\C/C=C\CC [PE 22:6_22:6] (ion (formula + adduct): [C49H74NO8P+H] 1+)
Sample type: HeLa
  TIMS collisional cross section: 286.7 Å²

## CCCCCCCC/C=C\CCCCCCCC(=O)O[C@H](COCCCCCCCCCCCCCCCC)COP(=O)(O)OCCN [PE O- 16:0@_18:1] (ion (formula + adduct): [C39H78NO7P+H] 1+)
Sample type: HeLa
  TIMS collisional cross section: 276 Å²

## CCCCC/C=C\C/C=C\C/C=C\C/C=C\CCCC(=O)O[C@H](COCCCCCCCCCCCCCCCC)COP(=O)(O)OCCN [PE O- 16:0@_20:4] (ion (formula + adduct): [C41H76NO7P+H] 1+)
Sample type: plasma
  TIMS collisional cross section: 275.8 Å²

## CCCCC/C=C\C/C=C\C/C=C\C/C=C\C/C=C\CCC(=O)O[C@H](COCCCCCCCCCCCCCCCC)COP(=O)(O)OCCN [PE O- 16:0@_22:5] (ion (formula + adduct): [C43H78NO7P+H] 1+)
Sample type: HeLa
  TIMS collisional cross section: 281.6 Å²

## CC/C=C\C/C=C\C/C=C\C/C=C\C/C=C\C/C=C\CCC(=O)O[C@H](COCCCCCCCCCCCCCCCC)COP(=O)(O)OCCN [PE O- 16:0@_22:6] (ion (formula + adduct): [C43H76NO7P+H] 1+)
Sample type: HeLa
  TIMS collisional cross section: 279.6 Å²

## CCCCC/C=C\C/C=C\C/C=C\C/C=C\CCCC(=O)O[C@H](COCCCCCCCCCCCCCCCCCC)COP(=O)(O)OCCN [PE O- 18:0@_20:4] (ion (formula + adduct): [C43H80NO7P+H] 1+)
Sample type: Liver
  TIMS collisional cross section: 284 Å²

## CCCCCCCC/C=C\CCCCCCCC(=O)O[C@H](CO/C=C\CCCCCCCCCCCCCC)COP(=O)(O)OCCN [PE P- 16:0@_18:1] (ion (formula + adduct): [C39H76NO7P+H] 1+)
Sample type: HeLa
  TIMS collisional cross section: 274 Å²
Sample type: Liver
  TIMS collisional cross section: 274.1 Å²
Sample type: plasma
  TIMS collisional cross section: 274.1 Å²

## CCCCC/C=C\C/C=C\CCCCCCCC(=O)O[C@H](CO/C=C\CCCCCCCCCCCCCC)COP(=O)(O)OCCN [PE P- 16:0@_18:2] (ion (formula + adduct): [C39H74NO7P+H] 1+)
Sample type: HeLa
  TIMS collisional cross section: 270.7 Å²
Sample type: Liver
  TIMS collisional cross section: 270.5 Å²
Sample type: plasma
  TIMS collisional cross section: 270.6 Å²

## CCCCCCCCC/C=C\CCCCCCCC(=O)O[C@H](CO/C=C\CCCCCCCCCCCCCC)COP(=O)(O)OCCN [PE P- 16:0@_19:1] (ion (formula + adduct): [C40H78NO7P+H] 1+)
Sample type: HeLa
  TIMS collisional cross section: 277.5 Å²
